Source: US20230150974A1 (Foghorn Therapeutics Inc., priority 2020, published 2023)

Tests used:
[1] = target: T1, HiBiT-BRM (Homo sapiens, UniProt P51531); assay: HiBiT-BRM cell-based degradation assay (Nano-Glo HiBiT Lytic Detection); conditions: HeLa cells expressing HiBiT-BRM, 24 h; for DC50: read-out: BRM HiBit Degradation IC50
T1 construct: expressed in transfected cells
In short: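 Luminescence from HiBiT–LgBiT complementation in lysates of a stable HiBiT-BRM HeLa line measured after 24 h compound exposure. Degradation expressed as percent relative to DMSO-treated cells and cells given 2 μM of a known BRM/BRG1 degrader.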

[2] = target: T2, HiBit-BRG1 (Homo sapiens, UniProt P51532); assay: HiBit-BRG1 cell-based degradation assay (Nano-Glo HiBiT Lytic Detection); conditions: HeLa cells expressing HiBit-BRG1 and LgBit, 24 h; for DC50: read-out: BRG1 HiBit Degradation IC50; for Dmax: read-out: BRG1 HiBit Degradation Maximum (%)
T2 construct: expressed in transfected cells
T2 sequence (P51532 whole entry): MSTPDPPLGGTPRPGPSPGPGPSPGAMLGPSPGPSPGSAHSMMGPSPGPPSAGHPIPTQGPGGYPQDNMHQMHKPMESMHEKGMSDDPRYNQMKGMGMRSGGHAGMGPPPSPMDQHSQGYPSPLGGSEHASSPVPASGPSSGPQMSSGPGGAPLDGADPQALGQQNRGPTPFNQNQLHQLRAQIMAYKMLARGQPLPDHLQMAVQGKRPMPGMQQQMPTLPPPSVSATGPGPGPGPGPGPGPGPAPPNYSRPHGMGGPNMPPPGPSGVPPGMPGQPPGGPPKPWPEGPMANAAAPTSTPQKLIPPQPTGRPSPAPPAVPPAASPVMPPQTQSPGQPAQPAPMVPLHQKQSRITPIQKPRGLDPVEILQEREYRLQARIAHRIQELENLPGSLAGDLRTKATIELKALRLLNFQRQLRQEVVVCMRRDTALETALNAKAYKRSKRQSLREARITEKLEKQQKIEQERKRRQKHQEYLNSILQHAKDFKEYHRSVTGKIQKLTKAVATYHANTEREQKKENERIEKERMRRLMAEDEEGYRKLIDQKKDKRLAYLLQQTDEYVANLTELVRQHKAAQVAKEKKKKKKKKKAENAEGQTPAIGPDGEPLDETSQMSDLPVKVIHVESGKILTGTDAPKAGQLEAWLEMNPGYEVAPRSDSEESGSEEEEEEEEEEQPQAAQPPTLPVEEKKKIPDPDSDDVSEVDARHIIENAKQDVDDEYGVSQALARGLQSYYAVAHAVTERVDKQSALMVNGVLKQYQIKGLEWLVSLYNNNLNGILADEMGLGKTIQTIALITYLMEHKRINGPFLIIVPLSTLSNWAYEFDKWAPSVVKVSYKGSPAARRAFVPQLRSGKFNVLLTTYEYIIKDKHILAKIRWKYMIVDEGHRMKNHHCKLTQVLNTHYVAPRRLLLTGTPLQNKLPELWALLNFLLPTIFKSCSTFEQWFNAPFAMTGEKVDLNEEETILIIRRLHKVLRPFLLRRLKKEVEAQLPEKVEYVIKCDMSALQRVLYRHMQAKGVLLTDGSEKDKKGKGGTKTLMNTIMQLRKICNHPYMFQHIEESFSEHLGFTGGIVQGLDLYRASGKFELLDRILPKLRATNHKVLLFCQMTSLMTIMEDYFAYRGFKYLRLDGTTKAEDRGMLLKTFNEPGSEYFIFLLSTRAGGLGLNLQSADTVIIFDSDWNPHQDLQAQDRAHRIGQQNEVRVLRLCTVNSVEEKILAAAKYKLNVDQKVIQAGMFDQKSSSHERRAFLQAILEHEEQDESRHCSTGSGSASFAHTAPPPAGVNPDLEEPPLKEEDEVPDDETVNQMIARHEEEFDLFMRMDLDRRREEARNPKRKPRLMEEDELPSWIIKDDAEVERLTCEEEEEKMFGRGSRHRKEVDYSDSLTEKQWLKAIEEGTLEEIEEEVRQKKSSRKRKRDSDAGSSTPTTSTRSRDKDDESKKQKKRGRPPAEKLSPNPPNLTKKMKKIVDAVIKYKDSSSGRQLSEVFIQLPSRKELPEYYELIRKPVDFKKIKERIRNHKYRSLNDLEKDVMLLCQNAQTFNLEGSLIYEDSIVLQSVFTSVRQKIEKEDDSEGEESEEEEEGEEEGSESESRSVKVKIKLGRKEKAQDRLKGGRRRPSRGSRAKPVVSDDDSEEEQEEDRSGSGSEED
In short: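 Luminescence from Nano-Glo HiBiT lytic detection, read after 24 h compound exposure, scored degradation in a stable HeLa HiBiT-BRG1/LgBit line seeded at 5000 cells/well. DMSO wells defined 0% and 2 μM known BRM/BRG1 degrader wells defined full degradation.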

T1 sequence (P51531 whole entry): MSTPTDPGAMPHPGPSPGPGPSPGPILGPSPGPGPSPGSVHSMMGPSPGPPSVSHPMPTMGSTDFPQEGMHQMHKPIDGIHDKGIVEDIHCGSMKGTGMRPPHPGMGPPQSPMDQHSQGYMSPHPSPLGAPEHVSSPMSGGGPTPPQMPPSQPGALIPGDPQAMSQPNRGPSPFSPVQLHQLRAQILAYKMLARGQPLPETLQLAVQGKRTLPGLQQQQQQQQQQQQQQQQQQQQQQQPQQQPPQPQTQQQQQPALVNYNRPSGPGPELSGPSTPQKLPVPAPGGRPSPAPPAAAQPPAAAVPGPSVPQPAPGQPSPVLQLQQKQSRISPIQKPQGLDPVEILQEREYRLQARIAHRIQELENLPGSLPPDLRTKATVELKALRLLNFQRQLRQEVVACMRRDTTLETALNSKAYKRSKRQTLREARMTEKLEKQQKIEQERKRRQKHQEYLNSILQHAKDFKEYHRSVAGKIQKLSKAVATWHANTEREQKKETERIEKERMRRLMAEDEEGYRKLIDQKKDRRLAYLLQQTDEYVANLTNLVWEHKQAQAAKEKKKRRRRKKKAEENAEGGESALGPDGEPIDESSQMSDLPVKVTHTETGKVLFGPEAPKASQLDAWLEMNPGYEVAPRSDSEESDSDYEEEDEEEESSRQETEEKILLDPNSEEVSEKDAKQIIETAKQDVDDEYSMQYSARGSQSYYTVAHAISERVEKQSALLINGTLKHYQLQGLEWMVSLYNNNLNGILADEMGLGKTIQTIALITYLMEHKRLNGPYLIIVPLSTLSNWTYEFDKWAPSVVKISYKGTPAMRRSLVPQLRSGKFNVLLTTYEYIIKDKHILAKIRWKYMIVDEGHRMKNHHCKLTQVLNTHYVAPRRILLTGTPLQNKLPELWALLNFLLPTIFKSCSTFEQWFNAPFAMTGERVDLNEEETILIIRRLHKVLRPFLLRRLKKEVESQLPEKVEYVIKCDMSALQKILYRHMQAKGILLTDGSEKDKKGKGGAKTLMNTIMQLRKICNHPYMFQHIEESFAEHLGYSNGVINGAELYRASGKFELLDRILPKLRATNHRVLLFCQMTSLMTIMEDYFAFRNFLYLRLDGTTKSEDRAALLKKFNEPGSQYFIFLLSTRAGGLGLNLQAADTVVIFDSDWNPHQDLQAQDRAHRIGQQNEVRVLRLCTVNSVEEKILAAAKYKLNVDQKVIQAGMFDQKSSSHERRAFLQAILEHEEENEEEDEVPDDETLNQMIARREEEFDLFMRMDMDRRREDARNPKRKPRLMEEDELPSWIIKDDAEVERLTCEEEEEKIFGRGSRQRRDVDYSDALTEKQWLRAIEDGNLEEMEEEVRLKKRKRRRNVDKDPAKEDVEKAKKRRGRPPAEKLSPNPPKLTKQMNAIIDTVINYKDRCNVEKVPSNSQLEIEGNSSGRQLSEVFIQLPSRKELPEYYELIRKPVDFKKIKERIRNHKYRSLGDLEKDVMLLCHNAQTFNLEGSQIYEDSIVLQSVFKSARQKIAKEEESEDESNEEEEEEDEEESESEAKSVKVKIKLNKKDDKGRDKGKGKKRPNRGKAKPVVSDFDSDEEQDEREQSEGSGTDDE

| DC50 [1] [nM] | DC50 [2] [nM] | Dmax [2] [%] | SMILES | BRM HiBit Degradation Maximum (%) [1] |
| --- | --- | --- | --- | --- |
| > 1000 | > 1000 | < 50 | Cc1ncsc1-c1ccc(CNC(=O)[C@@H]2C[C@@H](O)CN2C(=O)[C@@H](NC(=O)CCN2CC(OC3CCN(C(=O)c4ccc(CCOc5cc(-c6ccccc6O)nnc5N)cc4)CC3)C2)C(C)(C)C)cc1 [Compound 238, (2S,4R)-1-((S)-2-(3-(3-((1-(4-(2-((3-amino-6-(2-hydroxyphenyl)pyridazin-4-yl)oxy)ethyl)benzoyl)piperidin-4-yl)oxy)azetidin-1-yl)propanamido)-3,3-dimethylbutanoyl)-4-hydroxy-N-(4-(4-methylthiazol-5-yl)benzyl)pyrrolidine-2-carboxamide] | C (“C” indicates maximum degradation <50%) |
| > 100 | > 1000 | < 50 | Cc1ncsc1-c1ccc([C@H](C)NC(=O)[C@@H]2C[C@@H](O)CN2C(=O)[C@@H](c2cc(OCCNCCCCCCCCC(=O)NCc3ccc(CCOc4cc(-c5ccccc5O)nnc4N)cc3)no2)C(C)C)cc1 [Compound 239, (2S,4R)-1-((R)-2-(3-(2-((9-((4-(2-((3-amino-6-(2-hydroxyphenyl)pyridazin-4-yl)oxy)ethyl)benzyl)amino)-9-oxononyl)amino)ethoxy)isoxazol-5-yl)-3-methylbutanoyl)-4-hydroxy-N-((S)-1-(4-(4-methylthiazol-5-yl)phenyl)ethyl)pyrrolidine-2-carboxamide] | A (“A” indicates maximum degradation ≥75%) |
| > 100 | > 100 | > 75 | Cc1ncsc1-c1ccc([C@H](C)NC(=O)[C@@H]2C[C@@H](O)CN2C(=O)[C@@H](c2cc(OCCN3CC4CN(C(=O)c5ccc(CCOc6cc(-c7ccccc7O)nnc6N)cc5)C4C3)no2)C(C)C)cc1 (stereo partly drawn) [Compound 240, (2S,4R)-1-((2R)-2-(3-(2-(6-(4-(2-((3-amino-6-(2-hydroxyphenyl)pyridazin-4-yl)oxy)ethyl)benzoyl)-3,6-diazabicyclo[3.2.0]heptan-3-yl)ethoxy)isoxazol-5-yl)-3-methylbutanoyl)-4-hydroxy-N-((S)-1-(4-(4-methylthiazol-5-yl)phenyl)ethyl)pyrrolidine-2-carboxamide] | A (“A” indicates maximum degradation ≥75%) |
| > 1000 | > 1000 | < 50 | Cc1ncsc1-c1ccc(CNC(=O)[C@@H]2C[C@@H](O)CN2C(=O)[C@@H](NC(=O)CCN2CC3CN(C(=O)c4ccc(CCOc5cc(-c6ccccc6O)nnc5N)cc4)C3C2)C(C)(C)C)cc1 (stereo partly drawn) [Compound 241, (2S,4R)-1-((2S)-2-(3-(6-(4-(2-((3-amino-6-(2-hydroxyphenyl)pyridazin-4-yl)oxy)ethyl)benzoyl)-3,6-diazabicyclo[3.2.0]heptan-3-yl)propanamido)-3,3-dimethylbutanoyl)-4-hydroxy-N-(4-(4-methylthiazol-5-yl)benzyl)pyrrolidine-2-carboxamide] | C (“C” indicates maximum degradation <50%) |

| SMILES | DC50 [1] [nM] | DC50 [2] [nM] | Dmax [2] [%] | BRM HiBit Degradation Maximum (%) [1] |
| --- | --- | --- | --- | --- |
| Cc1ncsc1-c1ccc(CNC(=O)[C@@H]2C[C@@H](O)CN2C(=O)[C@@H](NC(=O)CCCN2CCN(CCOc3cc(N4[C@@H]5CC[C@H]4CN(c4cc(-c6ccccc6O)nnc4N)C5)ccn3)CC2)C(C)(C)C)cc1 [Compound 242, (2S,4R)-1-((2S)-2-(4-(4-(2-((4-(3-(3-amino-6-(2-hydroxyphenyl)pyridazin-4-yl)-3,8-diazabicyclo[3.2.1]octan-8-yl)pyridin-2-yl)oxy)ethyl)piperazin-1-yl)butanamido)-3,3-dimethylbutanoyl)-4-hydroxy-N-(4-(4-methylthiazol-5-yl)benzyl)pyrrolidine-2-carboxamide] | > 100 | > 1000 | < 50 | A (“A” indicates maximum degradation ≥75%) |
